Assay results from patent US10251892B2, “Bicyclic heterocycles as FGFR4 inhibitors” (Incyte Corporation, priority 2015, dated 2019).

Molecular target: FGFR3 enzyme (Homo sapiens (Human), UniProt P22607)
Assay: FGFR Enzymatic Assay (peptide phosphorylation, FRET), FGFR3
Type: biochemical
Settings: IC50 ratio showing FGFR3 selectivity; pre-incubated for 4 hours
Experimental: The inhibitor potency of the exemplified compounds was measured in an enzyme assay that measures peptide phosphorylation using FRET measurements to detect product formation. Inhibitors were serially diluted in DMSO and a volume of 0.5 μL was transferred to the wells of a 384-well plate.
GraphPad prism3 was used to analyze the data.

FGFR3 enzyme, sequence (P22607 23-806): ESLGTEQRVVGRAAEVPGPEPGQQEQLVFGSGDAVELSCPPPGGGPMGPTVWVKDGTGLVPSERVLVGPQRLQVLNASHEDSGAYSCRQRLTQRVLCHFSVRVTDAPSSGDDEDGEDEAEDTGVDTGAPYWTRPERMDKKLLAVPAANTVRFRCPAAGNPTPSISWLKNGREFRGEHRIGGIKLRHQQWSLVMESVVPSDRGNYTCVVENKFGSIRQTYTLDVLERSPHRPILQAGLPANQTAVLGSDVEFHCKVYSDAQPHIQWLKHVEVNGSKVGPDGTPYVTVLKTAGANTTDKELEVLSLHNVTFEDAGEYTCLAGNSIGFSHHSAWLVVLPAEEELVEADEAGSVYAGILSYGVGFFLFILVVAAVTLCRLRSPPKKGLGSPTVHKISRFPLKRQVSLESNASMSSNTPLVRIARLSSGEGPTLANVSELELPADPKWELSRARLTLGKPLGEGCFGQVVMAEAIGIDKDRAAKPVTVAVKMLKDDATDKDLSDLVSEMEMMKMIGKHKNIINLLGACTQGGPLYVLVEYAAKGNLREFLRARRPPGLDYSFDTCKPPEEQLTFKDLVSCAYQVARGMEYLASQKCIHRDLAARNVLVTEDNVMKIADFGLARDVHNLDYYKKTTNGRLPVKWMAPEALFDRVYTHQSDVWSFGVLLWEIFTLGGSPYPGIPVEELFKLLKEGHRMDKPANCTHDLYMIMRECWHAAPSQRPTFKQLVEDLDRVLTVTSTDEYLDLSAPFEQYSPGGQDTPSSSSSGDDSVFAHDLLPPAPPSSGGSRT

Row | Structure (SMILES) | FGFR1/FGFR3 | FGFR4/FGFR3
1 | COc1cc(OC)c(F)c(N2Cc3cnc(-c4cn(C)nc4C)cc3N(c3ccc(C(=O)N(C)C)cc3)C2=O)c1F [Example 113, 4-(3-(2,6-difluoro-3,5-dimethoxyphenyl)-7-(1,3-dimethyl-1H-pyrazol-4-yl)-2-oxo-3,4-dihydropyrido[4,3-d]pyrimidin-1(2H)-yl)-N,N-dimethylbenzamide] | >3 | >5
2 | COc1ccc(N2C(=O)N(c3c(F)c(OC)cc(OC)c3F)Cc3cnc(-c4cn(C)nc4C)cc32)cc1 [Example 104, 3-(2,6-difluoro-3,5-dimethoxyphenyl)-7-(1,3-dimethyl-1H-pyrazol-4-yl)-1-(4-methoxyphenyl)-3,4-dihydropyrido[4,3-d]pyrimidin-2(1H)-one] | >3 | >5
3 | COc1cc(OC)c(F)c(N2Cc3cnc(-c4cn(C)nc4C)cc3N(Cc3ccncc3)C2=O)c1F [Example 69, 3-(2,6-difluoro-3,5-dimethoxyphenyl)-7-(1,3-dimethyl-1H-pyrazol-4-yl)-1-(pyridin-4-ylmethyl)-3,4-dihydropyrido[4,3-d]pyrimidin-2(1H)-one] | >5 | >5
4 | COc1cc(OC)c(F)c(N2Cc3cnc(-c4cn(C)nc4C)cc3N(Cc3ccc(F)cc3)C2=O)c1F [Example 34, 3-(2,6-difluoro-3,5-dimethoxyphenyl)-7-(1,3-dimethyl-1H-pyrazol-4-yl)-1-(4-fluorobenzyl)-3,4-dihydropyrido[4,3-d]pyrimidin-2(1H)-one] | >5 | >10
5 | COc1cc(OC)c(F)c(N2Cc3cnc(-c4cn(C)nc4C)cc3N(c3ccn(C)n3)C2=O)c1F [Example 100, 3-(2,6-difluoro-3,5-dimethoxyphenyl)-7-(1,3-dimethyl-1H-pyrazol-4-yl)-1-(1-methyl-1H-pyrazol-3-yl)-3,4-dihydropyrido[4,3-d]pyrimidin-2(1H)-one] | >5 | >5
6 | COc1cc(OC)c(F)c(N2Cc3cnc(-c4cn(CCCN5CCOCC5)nc4C)cc3C3(CC3)C2=O)c1F [Example 146, 2′-(2,6-difluoro-3,5-dimethoxyphenyl)-6′-(3-methyl-1-(3-morpholinopropyl)-1H-pyrazol-4-yl)-1′H-spiro[cyclopropane-1,4′-[2,7]naphthyridin]-3′(2′H)-one] | >10 | >5
7 | COc1cnc(N2C(=O)N(c3c(F)c(OC)cc(OC)c3F)Cc3cnc(-c4cn(C)nc4C)cc32)cn1 [Example 112, 3-(2,6-difluoro-3,5-dimethoxyphenyl)-7-(1,3-dimethyl-1H-pyrazol-4-yl)-1-(5-methoxypyrazin-2-yl)-3,4-dihydropyrido[4,3-d]pyrimidin-2(1H)-one] | >3 | >5
8 | COc1cc(OC)c(F)c(N2Cc3cnc(-c4cn(C)nc4C)cc3N(CC3CCOCC3)C2=O)c1F [Example 37, 3-(2,6-difluoro-3,5-dimethoxyphenyl)-7-(1,3-dimethyl-1H-pyrazol-4-yl)-1-((tetrahydro-2H-pyran-4-yl)methyl)-3,4-dihydropyrido[4,3-d]pyrimidin-2(1H)-one] | >1 | >10
9 | CCN1C(=O)N(c2c(F)c(OC)cc(OC)c2F)Cc2cnc(-c3cnn(C)c3)cc21 [Example 169, 3-(2,6-difluoro-3,5-dimethoxyphenyl)-1-ethyl-7-(1-methyl-1H-pyrazol-4-yl)-3,4-dihydropyrido[4,3-d]pyrimidin-2(1H)-one] | >3 | >5
10 | COc1cc(OC)c(F)c(N2Cc3cnc(-c4cn(C)nc4C)cc3N(c3ccc4ccncc4c3)C2=O)c1F [Example 63, 3-(2,6-difluoro-3,5-dimethoxyphenyl)-7-(1,3-dimethyl-1H-pyrazol-4-yl)-1-(isoquinolin-7-yl)-3,4-dihydropyrido[4,3-d]pyrimidin-2(1H)-one] | >10 | >5
11 | COC(=O)N1CCC(N2C(=O)N(c3c(F)c(OC)cc(OC)c3F)Cc3cnc(-c4cn(C)nc4C)cc32)CC1 [Example 122, Methyl 4-(3-(2,6-difluoro-3,5-dimethoxyphenyl)-7-(1,3-dimethyl-1H-pyrazol-4-yl)-2-oxo-3,4-dihydropyrido[4,3-d]pyrimidin-1(2H)-yl)piperidine-1-carboxylate] | >5 | >5
12 | COc1cc(OC)c(F)c(N2Cc3cnc(-c4cnn(CCC5CCN(S(C)(=O)=O)CC5)c4)cc3C3(CC3)C2=O)c1F [Example 148, 2′-(2,6-difluoro-3,5-dimethoxyphenyl)-6′-(1-(2-(1-(methylsulfonyl)piperidin-4-yl)ethyl)-1H-pyrazol-4-yl)-1′H-spiro[cyclopropane-l,4′-[2,7]naphthyridin]-3′(2′H)-one] | >10 | >3
13 | COc1cc(OC)c(F)c(N2Cc3cnc(-c4cnn(CC5CCCS(=O)(=O)N5)c4)cc3C3(CC3)C2=O)c1F (stereo not drawn) [Example 162, 2′-(2,6-difluoro-3,5-dimethoxyphenyl)-6′-{1-[(1,1-dioxido-1,2-thiazinan-3-yl)methyl]-1H-pyrazol-4-yl}-1′H-spiro[cyclopropane-1,4′-[2,7]naphthyridin]-3′(2′H)-one] | >5 | >1
14 | COC(=O)Nc1ccc(N2C(=O)N(c3c(F)c(OC)cc(OC)c3F)Cc3cnc(-c4cn(C)nc4C)cc32)cc1 [Example 123, Methyl 4-(3-(2,6-difluoro-3,5-dimethoxyphenyl)-7-(1,3-dimethyl-1H-pyrazol-4-yl)-2-oxo-3,4-dihydropyrido[4,3-d]pyrimidin-1(2H)-yl)phenylcarbamate] | >5 | >3
15 | COc1cc(OC)c(F)c(N2Cc3cnc(-c4cnn(CCN5CCOCC5)c4)cc3C3(CC3)C2=O)c1F [Example 157, 2′-(2,6-difluoro-3,5-dimethoxyphenyl)-6′-(1-(2-morpholinoethyl)-1H-pyrazol-4-yl)-1′H-spiro[cyclopropane-1,4′-[2,7]naphthyridin]-3′(2′H)-one] | >5 | >3
16 | CCN1C(=O)N(c2c(F)c(OC)cc(OC)c2F)Cc2cnc(-c3ccc(N4CCOCC4)nc3)cc21 [Example 182, 3-(2,6-difluoro-3,5-dimethoxyphenyl)-1-ethyl-7-(6-morpholinopyridin-3-yl)-3,4-dihydropyrido[4,3-d]pyrimidin-2(1H)-one] | >5 | >5
17 | CCN1C(=O)N(c2c(F)c(OC)cc(OC)c2F)Cc2cnc(-c3ccc(C4(C#N)CC4)cc3)cc21 [Example 183, 1-(4-(3-(2,6-difluoro-3,5-dimethoxyphenyl)-1-ethyl-2-oxo-1,2,3,4-tetrahydropyrido[4,3-d]pyrimidin-7-yl)phenyl)cyclopropanecarbonitrile] | >3 | >10
18 | COc1cc(OC)c(F)c(N2Cc3cnc(-c4cn(CCC5CCNCC5)nc4C)cc3C3(CC3)C2=O)c1F [Example 165, 2′-(2,6-difluoro-3,5-dimethoxyphenyl)-6′-(3-methyl-1-(2-(piperidin-4-yl)ethyl)-1H-pyrazol-4-yl)-1′H-spiro[cyclopropane-1,4′-[2,7]naphthyridin]-3′(2′H)-one] | >3 | >3
